The results in this text go back to patent publication EP0082648A2, “Cephalosporin derivatives” (IMPERIAL CHEMICAL INDUSTRIES PLC, priority 1981, dated 1983).

≈ marks a conversion by molar mass, not a printed value.

In one series the test system is E. coli. The series is described as follows: In vitro agar dilution MIC test, Jewell and Pearmain agar medium. To be noted: Escherichia coli, Code A8, inoculum size ~10^5 CFU. Type of series: cell-based. The text has this:
(§1) The results set out in the following Table are illustrative of the biological activity of one of the preferred compounds of the present invention, that of Example 4. The following results are those obtained on a standard in vitro test system using Jewell and Pearmain agar medium. The antibacterial activity is described in terms of the minimum inhibitory concentration (MIC) determined by agar - dilution technique with an inoculum size of ~10^5 CFU.
A general note: In agar dilution the substance is mixed into plates at graded concentrations.

The next series has as its system Ent. cloacae. The description is as above. Format: cell-based. To be noted: Enterobacter cloacae, Code A13, inoculum size ~10^5 CFU.
From the text: as §1

Another series has as its system K. aerogenes. The description is as above. To be noted: Klebsiella aerogenes, Code A10, inoculum size ~10^5 CFU. Format: cell-based.
From the text: as §1

The test system of a further series is Proteus mirabilis. The series is described as above. Format: cell-based. To be noted: Code A18, inoculum size ~10^5 CFU.
From the text: as §1

For a further series, the system named is Ps. aeruginosa. Described as above. To be noted: Pseudomonas aeruginosa, Code A21, inoculum size ~10^5 CFU. Type of series: cell-based.
From the text: as §1

A further series deals with Salmonella dublin. The description is as above. Type of series: cell-based. Conditions: Salmonella enterica, Code A20, inoculum size ~10^5 CFU.
From the text: as §1

Another series concerns Serratia marescens. The series is described as above. Format: cell-based. To be noted: Code A16, inoculum size ~10^5 CFU.
From the text: as §1

Another series concerns Staph. aureus. The series is described as above. Type of series: cell-based. To be noted: Staphylococcus aureus, Code A6, inoculum size ~10^5 CFU.
From the text: as §1

The next series concerns Strep. pyogenes. The series is described as above. Format: cell-based. To be noted: Streptococcus pyogenes, Code A1, inoculum size ~10^5 CFU.
From the text: as §1

The nature of series [1]: Toxicity observation after subcutaneous administration to mice. Format: in vivo. To be noted: dose four times the minimum effective dose which protected 50% of the mice against infection with Salmonella dublin. The method, then:
Thus the compound 7-(4-[3-(3-cyano-2-methylisothioureido)propyl]imidazol-2-yl)amino-3-(1-methyl-lH-tetrazol-5-yl)thiomethylceph-3-em-4-carboxylic acid (Example 4) was administered subcutaneously to mice at a dose four times that of the minimum effective dose which protected 50% of the mice against infection with Salmonella dublin.

For orientation: MIC means the lowest concentration found to suppress growth. Low values mean a more susceptible organism, high ones a less susceptible organism. For `CSC(=NC#N)NCCCc1c[nH]c(NC2C(=O)N3C(C(=O)O)=C(CSc4nnnn4C)CS[C@H]23)n1` (stereo partly shown) [Example 4, 7-(4-[3-(3-cyano-2-methylisothioureido)propyl]imidazol-2-yl)amino-3-(1-methyl-1H-tetrazol-5-yl)thiomethylceph-3-em-4-carboxylic acid], the MIC against E. coli is 0.06 µg/mL (≈ 0.109 µM); against Ent. cloacae, 32 µg/mL (≈ 58.2 µM); in the series on K. aerogenes, 0.12 µg/mL (≈ 0.218 µM); against Proteus mirabilis it was 1 µg/mL (≈ 1.82 µM); in the series on Ps. aeruginosa, over 128 µg/mL; against Salmonella dublin, 0.03 µg/mL (≈ 0.0546 µM). In addition, the MIC in the series with Serratia marescens came to 4 µg/mL (≈ 7.28 µM); in the series on Staph. aureus, 16 µg/mL (≈ 29.1 µM); against Strep. pyogenes, 8 µg/mL (≈ 14.6 µM). In addition, in series [1], the “overt toxic symptoms or side effects” value is “No overt toxic symptoms or side effects attributable to the administered compound were noted”.
